Assay results taken from publication PMC6733504, “Effects of flavoring compounds used in electronic cigarette refill liquids on endothelial and vascular function” (PLoS ONE, 2019).
Read-outs that look alike come from different tables or passages of the source.

Columns and labels:
[1] = system: Porcine aortic endothelial cells (endothelial sGC); assay: DEA/NO-induced endothelial cGMP formation; type: cell-based; conditions: for DEA/NO-stimulated endothelial cGMP formation: 1 mM
Description: Porcine aortic endothelial cells were isolated as described and cultured at 37°C, 5% CO2 for up to 3 passages in Dulbecco´s modified Eagle´s medium, containing 10% heat-inactivated fetal calf serum (FCS), 100 U/ml penicillin, 0.1 mg/ml streptomycin, and 1.25 μg/ml amphotericin B. Prior to experiments, cells were subcultured into 24-well plates (determination of cGMP formation) or 6-well plates (determination of L-citrulline formation).
Accumulation of intracellular 3',5'-cyclic GMP (cGMP) was determined as previously described. […] Reactions were started by addition of the Ca^2+ ionophore A 23187 (final concentration 1 μM) or the NO donor DEA/NO (final concentration 1 μM) and terminated after 4 minutes by removal of the incubation medium and addition of 0.01 M HCl. Within 1 h, intracellular cGMP was completely released into the supernatant and measured by radioimmunoassay.

NO synthase (NOS) = molecular target: T1, NO synthase (NOS) (Sus scrofa, UniProt Q28969); assay: Endothelial L-citrulline formation (NOS activity in intact cells); type: cell-based, porcine; conditions: for Direct effect on NOS-catalyzed L-citrulline formation: 1 mM, absence of A23187 (S1 Fig)
T1 construct: endogenous in cells; host or cells: primary porcine aortic endothelial cells (up to 3 passages)
T1 sequence (Q28969 1-1205): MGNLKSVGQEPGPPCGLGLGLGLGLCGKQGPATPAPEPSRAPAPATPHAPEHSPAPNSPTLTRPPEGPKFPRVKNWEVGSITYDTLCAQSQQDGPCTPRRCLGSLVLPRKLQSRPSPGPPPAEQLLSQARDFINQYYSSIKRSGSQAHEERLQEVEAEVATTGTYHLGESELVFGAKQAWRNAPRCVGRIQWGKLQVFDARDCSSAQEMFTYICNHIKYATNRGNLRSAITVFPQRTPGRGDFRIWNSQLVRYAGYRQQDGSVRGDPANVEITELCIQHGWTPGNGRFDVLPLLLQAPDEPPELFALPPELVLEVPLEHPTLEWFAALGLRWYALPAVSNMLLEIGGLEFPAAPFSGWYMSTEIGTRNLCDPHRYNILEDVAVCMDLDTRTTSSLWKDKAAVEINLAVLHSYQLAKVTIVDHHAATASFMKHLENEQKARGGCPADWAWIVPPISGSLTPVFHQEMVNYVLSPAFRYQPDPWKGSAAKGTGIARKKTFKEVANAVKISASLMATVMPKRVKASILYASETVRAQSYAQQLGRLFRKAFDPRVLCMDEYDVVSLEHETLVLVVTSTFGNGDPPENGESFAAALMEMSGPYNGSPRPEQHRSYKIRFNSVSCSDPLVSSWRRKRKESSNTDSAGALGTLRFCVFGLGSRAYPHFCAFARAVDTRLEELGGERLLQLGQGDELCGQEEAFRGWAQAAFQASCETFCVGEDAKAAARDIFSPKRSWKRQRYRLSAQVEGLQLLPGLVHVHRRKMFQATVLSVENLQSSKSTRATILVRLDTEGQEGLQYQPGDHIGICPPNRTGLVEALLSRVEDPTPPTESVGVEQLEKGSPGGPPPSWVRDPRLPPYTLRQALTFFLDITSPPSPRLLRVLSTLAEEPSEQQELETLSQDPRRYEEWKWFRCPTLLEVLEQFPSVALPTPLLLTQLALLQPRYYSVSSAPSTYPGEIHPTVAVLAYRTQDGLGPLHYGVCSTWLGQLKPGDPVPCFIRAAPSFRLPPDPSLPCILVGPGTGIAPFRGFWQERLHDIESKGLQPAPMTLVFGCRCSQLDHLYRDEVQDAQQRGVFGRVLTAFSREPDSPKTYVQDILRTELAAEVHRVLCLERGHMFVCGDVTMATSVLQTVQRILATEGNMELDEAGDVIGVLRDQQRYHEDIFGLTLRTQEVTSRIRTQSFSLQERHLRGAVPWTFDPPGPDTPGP
Description: NO synthase (NOS) activity in intact cells was determined by monitoring the conversion of L-[^3H]arginine into L-[^3H]citrulline as previously described. […] Subsequent to lysis of the cells with 0.01 M HCl, an aliquot was removed for determination of incorporated radioactivity. To the remaining sample, 200 mM sodium acetate buffer ([…]) containing 10 mM L-citrulline was added (final pH ~5.0), and L-[^3H]citrulline was separated from L-[^3H]arginine by cation exchange chromatography.

endothelial cells [2] = assay: MTT to formazan conversion (viability); type: cell-based, porcine; conditions: 1 mM, 60 minutes
Description: The viability of endothelial cells was judged by incubation with 1 mM of the flavoring compounds, followed by determination of 3-(4,5-dimethyl-2-thiazolyl)-2,5-diphenyltetrazolium bromide (MTT) to formazan conversion using the Cayman MTT Cell Proliferation Assay Kit purchased through VWR International (Vienna, Austria).

rat aortic rings = assay: Effect of flavorings on vascular tone of U-46619 precontracted aortic rings; conditions: 95% CI
Description: Unsexed Sprague-Dawley rats (obtained from Charles River, Sulzfeld, Germany) were housed at the local animal facility in approved cages. […] Animals were euthanized in a box that was gradually filled with CO2 until vital signs had ceased (cessation of respiration and circulation). Subsequently, the thorax of the animals was opened, the thoracic aorta was removed, cleaned from connective tissue and immediately used for assessment of vessel function.
After equilibration for 60 min at the optimal resting tension of 20 mN, maximal contractile activity was determined with a depolarizing solution containing 60 mM K^+. […] When contraction had reached a stable plateau (~after 20 min) cumulative concentration-response curves were established with flavorings. Where indicated, the effects of the flavorings on vascular tone were tested in the presence of the NOS inhibitor N^G-nitro-L-arginine methyl ester (L-NAME, 0.2 mM).
Concentration-response curves of different ring segments from a single animal were averaged and counted as an individual experiment.

[3] = system: endothelium-denuded rat aortic rings; assay: CaCl2-induced contractile response in endothelium-denuded aortic rings; conditions: Ca2+-free high K+ solution, CaCl2 0.156-2.5 mM
Description: Rings were treated with Ca2+-
4 free high K+ solution (containing 0.1 mM EG TA a n d 6 0 mM K+). The Ca2+-free
5 preparations were then cumulatively contracted with CaCl2 (0.156-2.5 mM) in the
6 absence or presence of cinnamaldehyde or eugenol. The established L-type Ca2+
9 Concentration-response curves obtained with different ring segments from a single
10 animal were averaged and counted as an individual experiment. Data are expressed
11 as mean values ±SEM ( n=3).
(1 picture or pasted object on this page, not shown here)

endothelial cells [4] = conditions: pig, 1 h, 1 mM
Description: To test for membrane integrity, endothelial cells were assayed for release of lactate dehydrogenase (LDH) into the culture medium. Subsequent to incubation with flavoring compounds (1 mM each) for 1 hour, 20-μl aliquots of the culture media were mixed with 200 μl of reagent buffer (1 mM pyruvate and 0.1 mM NAD^+ in PBS). The decrease in light absorbance at 340 nm was monitored using a diode array spectrophotometer (Hewlett Packard 8452A). Maximum LDH release was determined by treating the cells with 1% Triton X-100.

[5] = Rattus norvegicus, absence of L-NAME, read-out: EC50 of relaxation of pre-contracted vessels (Control)
[6] = Rattus norvegicus, presence of L-NAME 0.2 mM, read-out: EC50 of relaxation of pre-contracted vessels (L-NAME)

SMILES: O=C/C=C/c1ccccc1 [Cinnamaldehyde, (2E)-3-Phenylprop-2-enal]
- DEA/NO-stimulated endothelial cGMP formation ([1]; incubation for 15 minutes (Fig 2B)): 25.3±3.9 % of controls
- DEA/NO-stimulated endothelial cGMP formation ([1]; incubation for 75 minutes (Fig 2B)): 10.4±2.4 % of controls
- DEA/NO-induced cGMP formation ([1]; flavoring 1 mM, 15 min preincubation, 1 μM DEA/NO for 4 min (Fig 1B)): about 35 % of controls
- Concentration inhibiting Ca2+-stimulated NO synthase activation (NO synthase (NOS)): ≥ 0.3 mM
- Direct effect on NOS-catalyzed L-citrulline formation (NO synthase (NOS)): neither eugenol nor cinnamaldehyde increased
- Effect on A23187-stimulated L-citrulline formation (endothelial NOS activity) (NO synthase (NOS); 0.3 and 1.0 mM (Fig 2A)): significantly inhibited
- Formazan formation (% of control) (endothelial cells [2]): 91±2.6 % of control
- EC50 (rat aortic rings; [5]): ~500 µM
- EC50 (rat aortic rings; [6]): 600 µM
- Effect on CaCl2-induced contraction [3]: significantly inhibited
- LDH release (% of maximum) (endothelial cells [4]): 1.8±0.50 % of maximum

SMILES: C=CCc1ccc(O)c(OC)c1 [Eugenol, 2-Methoxy-4-(prop-2-en-1-yl)phenol]
- Direct effect on NOS-catalyzed L-citrulline formation (NO synthase (NOS)): neither eugenol nor cinnamaldehyde increased
- Formazan formation (% of control) (endothelial cells [2]): 107±4.6 % of control
- EC50 (rat aortic rings; [5]): ~500 µM
- EC50 (rat aortic rings; [6]): 500 µM
- EC50 (rat aortic rings; absence of L-NAME, read-out: EC50 of relaxation of pre-contracted vessels (Control)): 400 µM
- Effect on CaCl2-induced contraction [3]: significantly inhibited
